Results on four compounds are retold here after publication PMC12851007 (Angewandte Chemie (International Ed. in English), 2025).

The nature of the test: CF dye efflux assay, POPC vesicles. In kind it is biochemical. The conditions noted are these: error = SD of fit. From the text:
Time-dep endent fluores cence intensit y traces, I (t), were subsequentl y normalized to fractional intensities, If(t), using equation (1). Therein, I 0 is the intensity just before addition of peptide and I ∞ is the constant intensit y after addition of the calibration cockt ail.
IIf (tt ) = II (tt )−II0II∞ − II0 (1)
The concentration-dependent fractional intensities just before the addition of the calibration cocktail, If, were then normalized to fractional membrane activities, Y, using equation (2).
Therein, If,0 is the fractional intensit y just before addition of the calibration cocktail in absence of peptide and I f,∞ is the constant fractional intensity after addition of the calibration cocktail.
YY = IIf − IIf,0IIf,∞ − IIf,0 (2)
The fractional membrane activities, Y, were subsequently plotted against the peptide concentration, c, and analysed using the Hill equation (3) to obtain the effective molar concentration, EC50, and the Hill coefficient, n. Y0 and Y ma x are the fractional membrane activities in absen ce o f p eptide and at max imal peptide concent rations. For peptides with too little activity to determine Y ma x ex perimentall y, Y max was fixed at 1.0 during fitting.
YY = YY0 + YYmax − YY0nn (3)
Vesicle preparation. 100 µ L of a solution of 25 mg/ml of POPC in chloroform or 200 µ L of a solution of 25 mg/ml of EYPC in chloroform was purged with a stream of nitrogen and dried overnight under high vacuum. The thin lipid film was reh ydrated with 1ml of reh yd ration buffer (= inside buffer, see Table S3 ) b y agitation at room temperature for 30 min and then subjected to 5 freeze- thaw cycles (freezing in liquid nitrogen and thawing at 40 °C).
Subsequently, the liposome suspension was extruded ≥ 15 times through a polycarbonate membrane (pore size 100 nm). Extravesicular components were then removed by size exclusion chromatography using a 1.5 × 12 cm polyprop ylene column (Bio- Rad, German y) with 1.0 g Sephad ex G-50 (medium) as a stationa r y ph ase and the resp ectiv e outside buffer for […]
Ta b l e S 3. Combinations of inside and outside buffer for CF -LUVs.
No. Lipid Inside buffer = rehydration buffer Outside buffer
(1) EYPC 10 mM Hepes, 50 mM CF, pH 7.5 10 mM Hepes, 97 mM NaCl, pH 7.5
(2) POPC 10 mM Hepes, 50 mM CF, pH 7.5 10 mM Hepes, 97 mM NaCl, pH 7.5
(3) POPC 10 mM Hepes, 50 mM CF, pH 7.5 10 mM Hepes, 175 mM glucose, pH 7.5 [a] [a] Glucose b uffers (183 mOsm/L at 25 °C) were used within one week after preparation.
Vesicle quality control. The size distribution of the liposomes was confirmed by DLS to be unimodal and avera ge ve sicles diameters wer e in the ran ge from 115 to 130 nm. The final lipid content in the liposome s uspension after prep ar ation and sep aration w as det ermined b y NMR. CF vesicles are comparabl y leak y and cont ain minor amounts of ex travesi cular CF after a f ew days. When the fluores cence chan ge after vesicl e lys is b y addition of 20 µ L 1.6% (wt/vol) TX-100 was less than a factor of four, the vesicle suspension was no longer used.
Assay protocol. An appropriate volume of the liposome stock solutions was diluted to 2 mL with outside buffer in a 10 ×10 mm quartz glass cuvette to afford a phospholipid concentration of 25 µM. The cuvette was placed into a thermostatted fluorimeter sample holder and gentl y stirred at 300 rpm at (25.0± 0.1) °C. Subsequentl y, the time-dependent change in fluorescence intensity (C F: λ exc = 492 nm, λ em = 517 nm) was recorded during addition of 20 µL peptide stock solution of var ying concentrations at 60 s and 20µ L of a calibration cocktail (1. 6% […]
intensities, If(t), using equation (1) and the concentration- dependent fractional intensities just before the addition of th e calibration co cktail, I f, w ere then normaliz ed to fr actional membran e activities, Y, using equation (2). The fractional membrane activities, Y, were subsequently plotted against the peptide concentration, c, and anal ysed using the Hill equation (3) to obtain […]

The mark [1] stands for this setting: single-channel, 25 µM POPC⸧CF-LUVs, inside 10 mM Hepes, 50 mM CF, pH 7.5, outside 10 mM Hepes, 175 mM glucose, pH 7.5, n = 1, read-out: EC50, CF assay in glucose-containing buffer.

Like-named read-outs stand apart in the source and are kept apart here. Where a SMILES comes first, the peptide text is derived from it.

What is called EC50 is the concentration giving half of the maximal effect. On to `CC[C@H](C)[C@H](NC(=O)[C@H](CCCCN)NC(=O)[C@H](CCCCN)NC(=O)[C@H](C)NC(=O)[C@H](CC(C)C)NC(=O)[C@H](C)NC(=O)[C@H](C)NC(=O)[C@H](CC(C)C)NC(=O)[C@H](C)NC(=O)[C@H](CCCCN)NC(=O)[C@H](CC(C)C)NC(=O)[C@H](CC(N)=O)NC(=O)[C@@H](NC(=O)[C@H](CCCCN)NC(=O)CNC(=O)[C@H](CC(C)C)NC(=O)[C@H](CC(C)C)NC(=O)[C@H](Cc1ccc(O)cc1)NC(=O)CNC(=O)[C@H](C)N)[C@@H](C)CC)C(=O)N[C@@H](CC(C)C)C(=O)O` [TP10], for which the EC50 under setting [1] was found to be 0.12 ± 0.02 µM.

Turning to `CC[C@H](C)[C@H](NC(=O)[C@H](CCCCN)NC(=O)[C@@H](NC(=O)[C@@H](N)CCC(N)=O)[C@@H](C)CC)C(=O)N[C@@H](Cc1c[nH]c2ccccc12)C(=O)N[C@@H](Cc1ccccc1)C(=O)N[C@@H](CCC(N)=O)C(=O)N[C@@H](CC(N)=O)C(=O)N[C@@H](CCCNC(=N)N)C(=O)N[C@@H](CCCNC(=N)N)C(=O)N[C@@H](CCSC)C(=O)N[C@@H](CCCCN)C(=O)N[C@@H](Cc1c[nH]c2ccccc12)C(=O)N[C@@H](CCCCN)C(=O)N[C@@H](CCCCN)C(=O)O` (H-QIKIWFQNRRMKWKK-OH), under “25 µM POPC⸧CF-LUVs diluted into 10 mM Hepes, 97 mM NaCl, pH 7.5, 25 °C, fractional activity at 590 s, n = 1 (Table S6, Figures S17, S19)”, the “EC50, CF assay, isosmotic” value is given as “too low to determine”. Where the note is “25 µM lipid, POPC⊃CF-LUVs, 10 mM Hepes, 97 mM NaCl, pH 7.5, 25 °C, fractional activity at 590 s, Hill fit, n = 1 (Table S5)”, the “EC50, CF assay, POPC” value is “too low to determine”.

On to `CC(C)C[C@H](NC(=O)[C@H](CC(C)C)NC(=O)[C@H](CCCNC(=N)N)NC(=O)[C@@H](N)CC(C)C)C(=O)N[C@@H](CCCNC(=N)N)C(=O)N[C@@H](Cc1c[nH]c2ccccc12)C(N)=O` [LRLLRW] (H-LRLLRW-NH2), for which the EC50 under setting [1] turned out to be 101 ± 9 µM.

`CC(C)[C@H](NC(=O)[C@H](CCCCN)NC(=O)[C@H](CCCNC(=N)N)NC(=O)[C@H](CCCCN)NC(=O)[C@H](CCCCN)NC(=O)[C@H](CCCCN)NC(=O)[C@@H]1CCCN1C(=O)[C@H](CCC(N)=O)NC(=O)[C@H](CO)NC(=O)[C@H](Cc1c[nH]c2ccccc12)NC(=O)[C@H](CC(=O)O)NC(=O)[C@@H](NC(=O)[C@H](Cc1c[nH]c2ccccc12)NC(=O)[C@H](Cc1c[nH]c2ccccc12)NC(=O)[C@@H](NC(=O)[C@H](CC(=O)O)NC(=O)[C@H](Cc1c[nH]c2ccccc12)NC(=O)[C@H](Cc1c[nH]c2ccccc12)NC(=O)[C@@H](NC(=O)[C@H](CC(=O)O)NC(=O)[C@@H](N)CCCCN)[C@@H](C)O)[C@@H](C)O)[C@@H](C)O)C(=O)O` [Pep‐1] (H-KDTWWDTWWTDWSQPKKKRKV-OH): the EC50 reads like this: (25 µM lipid, POPC⊃CF-LUVs, 10 mM Hepes, 97 mM NaCl, pH 7.5, 25 °C, fractional activity at 590 s, Hill fit, n = 1 (Table S5), read-out: EC50, CF assay, POPC) 114 ± 5 µM; under setting [1], 540 ± 90 µM.
